This note sets out measurements from ChEMBL document CHEMBL2311357, “Aminoalkyl derivatives of guanidine diaromatic minor groove binders with antiprotozoal activity” (J Med Chem, 2013).

One may read the ΔTm as the shift of the melting midpoint relative to a reference. The term IC50 denotes the concentration that inhibits the measured activity by half.

Data set [1] in a line: Selectivity index, ratio of IC50 for rat L6 cells to IC50 for Plasmodium falciparum NF54. It counts as toxicity, cell-based. The note with it: L6 cells versus Plasmodium falciparum NF54, read-out: Ratio IC50.
In data set [2] the test system is Salmonidae. Kind of data set: Binding affinity to salmon sperm DNA in 10 mM phosphate buffer assessed as change in melting temperature at 15 uM by thermal denaturation assay.
Data set [3] concerns L6. Kind of data set: Cytotoxicity against rat L6 cells after 70 hrs by resazurin reduction assay. It counts as cell-based. The note with it: L6, 70 h. Background: The colour change of resazurin is a common sign of viable cells or microbes.
For data set [4], the system named is Plasmodium falciparum. The experiment in a line: Antimalarial activity against erythrocytic stage of Plasmodium falciparum NF54 assessed as incorporation of [3H]hypoxanthine after 48 hrs by scintillation counting analysis. It counts as functional, organism-based.
Data set [5] relates to DNA. The experiment in a line: Binding affinity to calf thymus DNA in Tris-Hcl buffer assessed as change in melting temperature. The conditions noted are these: Bos taurus. It counts as nucleic-acid assay.
The nature of data set [6]: Selectivity index, ratio of IC50 for rat L6 cells to IC50 for Trypanosoma brucei rhodesiense STIB900. It counts as toxicity, cell-based. The note with it: L6 cells versus Trypanosoma brucei rhodesiense STIB900, read-out: Ratio IC50.
Data set [7] deals with Trypanosoma brucei rhodesiense. The experiment in a line: Antitrypanosomal activity against Trypanosoma brucei rhodesiense STIB900 after 70 hrs by resazurin reduction assay. It counts as functional, organism-based. The note with it: STIB900, 70 h.
The subject of data set [8] is DNA. The experiment in a line: Binding affinity to calf thymus DNA in MES buffer assessed as change in melting temperature. The note with it: Bos taurus. It counts as nucleic-acid assay.
For data set [9], the system named is unidentified. The experiment in a line: Binding affinity to poly(dA-dT) DNA (unknown origin) in PIPES buffer assessed as change in melting temperature.
A short description of data set [10]: Binding affinity to poly(dA-dT) DNA (unknown origin) in Tris-Hcl buffer assessed as change in melting temperature.

For the compound `N=C(N)Nc1ccc(Cc2ccc(NC(=O)CCCCN)cc2)cc1`, in data set [1], the selectivity ratio is 179. For the same compound, in [2], the shift in melting temperature (ΔTm) was determined as 4 °C. The figures for the IC50 in [3] and in data set [4] were 105 µM and 0.589 µM, respectively.
On to `N=C(N)Nc1ccc(C(=O)c2ccc(NC(=N)N)cc2)cc1`, for which the shift in melting temperature (ΔTm) in data set [2] is 4.2 °C.
Regarding `N=C(N)Nc1ccc(CCc2ccc(NC(=O)CCCCCCCCCCN)cc2)cc1`, in [1], the selectivity ratio turned out to be 12. Besides, the ΔTm in data set [2] was 1.1 °C. In addition, the values for the half-inhibitory concentration (IC50) in data set [3] and in data set [4] were 70.6 µM and 5.79 µM, respectively.
As for `N=C(N)c1ccc(OCCCCCOc2ccc(C(=N)N)cc2)cc1` [PENTAMIDINE], the selectivity ratio in data set [1] is 56; in data set [6] it was 755. For the same compound, the thermal shift (ΔTm) in data set [5] stood at 20.6 °C; in [8], 10.6 °C; in data set [9], 12.8 °C; in data set [10] it was 11.1 °C. In addition, the IC50 turned out to be 1.51 µM in [3], 0.002 µM in [7] and 0.027 µM in data set [4].
On to `N=C(N)Nc1ccc(Nc2ccc(NC(=O)CCCCCCCN)cc2)cc1`, for which, in data set [2], the ΔTm is 2 °C.
Turning to `N=C(N)Nc1ccc(C(=O)c2ccc(NC(=O)CCCN)cc2)cc1`, the ΔTm in data set [2] worked out at 5.1 °C.
Consider `N=C(N)Nc1ccc(CCc2ccc(NC(=O)CCCN)cc2)cc1`, for which the selectivity ratio in [1] is 116; in data set [6], 10. Also, the thermal shift (ΔTm) in [2] is 5 °C. Further, the IC50 in [3] is 133 µM; in [7], 13.3 µM; in data set [4], 1.14 µM.
`N=C(N)Nc1ccc(Oc2ccc(NC(=O)CCCN)cc2)cc1`: the selectivity ratio in [1] amounted to 197. In data set [2], the shift in melting temperature (ΔTm) stood at 1.2 °C. Moreover, the IC50 in data set [3] is 173 µM; in [4], 0.88 µM.
Regarding `N=C(N)Nc1ccc(Nc2ccc(NC(=O)CCCN)cc2)cc1`, in [1], the selectivity ratio stood at 106. The shift in melting temperature (ΔTm) in [2] was 1 °C. Also, the IC50 in data set [3] was 127 µM; in [4], 1.2 µM.
In the same order, the values of `N=C(N)Nc1ccc(Cc2ccc(NC(=O)CCCCCCCCCCN)cc2)cc1` are 15, 0 °C, 30.3 µM and 2.02 µM.
Turning to `N=C(N)Nc1ccc(Oc2ccc(NC(=O)CCCCCCCN)cc2)cc1`, the results for the selectivity ratio in [1] and in [6] were 913 and 4, respectively. For the same compound, the ΔTm in data set [2] was 2.1 °C. Also, the 50% inhibitory concentration (IC50) in data set [3] was 136 µM; in [7], 31.9 µM; in data set [4], 0.149 µM.
Turning to `N=C(N)Nc1ccc(C(=O)c2ccc(NC(=O)CCCCCCCCCCCN)cc2)cc1`, the selectivity ratio in [1] is 5. Further, the ΔTm in data set [2] was 2.1 °C. Besides, the IC50 in data set [3] is 10.6 µM; in data set [4], 1.98 µM.
For the compound `N=C(N)Nc1ccc(Cc2ccc(N)cc2)cc1`, in [2], the ΔTm came out at 3 °C.
For the compound `N=C(N)Nc1ccc(Oc2ccc(N)cc2)cc1`, the ΔTm in data set [2] stood at 2 °C.
For the compound `N=C(N)Nc1ccc(Nc2ccc(N)cc2)cc1`, in data set [2], the thermal shift (ΔTm) stood at 2.1 °C.
For `N=C(N)Nc1ccc(CCc2ccc(NC(=O)CCCCCCCN)cc2)cc1`, in [2], the ΔTm stood at 2 °C.
For `N=C(N)Nc1ccc(Oc2ccc(NC(=O)CCCCCCCCCCCN)cc2)cc1`, the selectivity ratio in data set [1] was found to be 13. The shift in melting temperature (ΔTm) in data set [2] was 2 °C. The IC50 came out at 22.4 µM in data set [3] and 1.71 µM in [4].
With `N=C(N)Nc1ccc(C(=O)c2ccc(NC(=O)CCCCCCCCCCN)cc2)cc1`, the shift in melting temperature (ΔTm) in [2] was 2 °C.
On to `N=C(N)Nc1ccc(Oc2ccc(NC(=O)CCCCN)cc2)cc1`, for which the selectivity ratio came out at 316 in [1] and 3 in data set [6]. Further, the ΔTm in data set [2] was found to be 6 °C. Besides, the figures for the IC50 in data set [3], in [7] and in [4] were 33.5 µM, 13.1 µM and 0.106 µM, respectively.
As to `N=C(N)Nc1ccc(Cc2ccc(NC(=O)CCCCCCCN)cc2)cc1`, the ΔTm in [2] was 0.1 °C.
With `N=C(N)Nc1ccc(Nc2ccc(NC(=O)CCCCCCCCCCCN)cc2)cc1`, the values for the selectivity ratio in [1] and in data set [6] were 4 and 3, respectively. In addition, the thermal shift (ΔTm) in data set [2] came to 5 °C. Further, the values for the half-maximal inhibitory concentration (IC50) in [3], in [7] and in data set [4] were 11.9 µM, 4.06 µM and 2.71 µM, respectively.
`N=C(N)Nc1ccc(Cc2ccc(NC(=O)CCCCCCCCCCCN)cc2)cc1`: in data set [1], the selectivity ratio came out at 10. Moreover, in data set [2], the ΔTm was determined as 0.1 °C. In addition, the IC50 in data set [3] came to 23.8 µM; in data set [4] it was 2.32 µM.
Take `N=C(N)Nc1ccc(Cc2ccc(NC(=N)N)cc2)cc1`: in data set [2], the ΔTm is 8.1 °C.
Turning to `N=C(N)Nc1ccc(Oc2ccc(NC(=O)CCCCCCCCCCN)cc2)cc1`, the selectivity ratio in data set [1] is 44. Besides, the shift in melting temperature (ΔTm) in data set [2] was determined as 2 °C. Further, the IC50 in data set [3] was determined as 62.3 µM; in data set [4], 1.41 µM.
As for `N=C(N)Nc1ccc(CCc2ccc(NC(=O)CCCCN)cc2)cc1`, the selectivity ratio in data set [1] turned out to be 103; in [6], 5. Besides, in data set [2], the thermal shift (ΔTm) came out at 5.1 °C. Further, the half-maximal inhibitory concentration (IC50) in data set [3] came out at 109 µM; in [7], 20.2 µM; in data set [4], 1.06 µM.
As for `N=C(N)Nc1ccc(CCc2ccc(N)cc2)cc1`, in data set [2], the thermal shift (ΔTm) amounted to 0.1 °C.
As for `N=C(N)Nc1ccc(Cc2ccc(NC(=O)CCCN)cc2)cc1`, the selectivity ratio in data set [1] is 79. Moreover, the ΔTm in data set [2] amounted to 1 °C. Besides, the IC50 in data set [3] is 207 µM; in data set [4], 2.62 µM.
For `N=C(N)Nc1ccc(C(=O)c2ccc(NC(=O)CCCCN)cc2)cc1`, the figures for the selectivity ratio in [1] and in data set [6] were 55 and 1, respectively. The ΔTm in [2] stood at 5.2 °C. For the same compound, the half-maximal inhibitory concentration (IC50) was 140 µM in [3], 121 µM in [7] and 2.55 µM in data set [4].
Take `N=C(N)Nc1ccc(Nc2ccc(NC(=N)N)cc2)cc1`: the thermal shift (ΔTm) in [2] was 8 °C.
Regarding `N=C(N)Nc1ccc(Nc2ccc(NC(=O)CCCCCCCCCCN)cc2)cc1`, the selectivity ratio in data set [1] was determined as 41; in data set [6] it was 2. In addition, in data set [2], the ΔTm stood at 3.1 °C. The 50% inhibitory concentration (IC50) was found to be 157 µM in [3], 85.4 µM in data set [7] and 3.79 µM in data set [4].
`Nc1nc(N)nc(Nc2ccc([As]3SCC(CO)S3)cc2)n1` (configuration not stated) [MELARSOPROL] yielded a concentration for half-maximal inhibition (IC50) in data set [7] of 0.0055 µM.
In the case of `N=C(N)Nc1ccc(Nc2ccc(NC(=O)CCCCN)cc2)cc1`, the selectivity ratio in data set [1] amounted to 153; in [6] it was 4. For the same compound, the ΔTm in data set [2] is 6.1 °C. Besides, the IC50 was found to be 223 µM in data set [3], 57.7 µM in [7] and 1.46 µM in [4].
On to `N=C(N)Nc1ccc(CCc2ccc(NC(=O)CCCCCCCCCCCN)cc2)cc1`, for which the thermal shift (ΔTm) in data set [2] worked out at 1.1 °C.
Turning to `N=C(N)Nc1ccc(C(=O)c2ccc(N)cc2)cc1`, the ΔTm in [2] turned out to be 0 °C.
